Data from paper PMC8896310 (Cell, 2022).

Legend:
BVU_0767 = molecular target: T1, BVU_0767 (Phocaeicola vulgatus, UniProt A6KYF7); test: DTNB thioesterase assay, […] nm; format: biochemical; conditions: 100 uM acyl-CoA, 25 nM enzyme, 60 mM potassium phosphate pH 7.4, 37 C
T1 sequence (A6KYF7 1-137): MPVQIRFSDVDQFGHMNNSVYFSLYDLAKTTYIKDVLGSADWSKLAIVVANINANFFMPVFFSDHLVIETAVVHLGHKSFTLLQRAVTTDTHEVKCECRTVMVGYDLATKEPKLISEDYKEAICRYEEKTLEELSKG

BT_3942 = molecular target: T2, BT_3942 (Bacteroides thetaiotaomicron, UniProt Q8A0S9); test: DTNB thioesterase assay, […] nm; format: biochemical; conditions: 100 uM acyl-CoA, 25 nM enzyme, 60 mM potassium phosphate pH 7.4, 37 C
T2 sequence (Q8A0S9 1-145): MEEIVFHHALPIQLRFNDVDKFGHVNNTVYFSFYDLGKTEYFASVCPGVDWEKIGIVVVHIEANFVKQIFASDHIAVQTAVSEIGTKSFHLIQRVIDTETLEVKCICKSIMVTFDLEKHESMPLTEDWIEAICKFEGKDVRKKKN

In the case of `CCCC(=O)SCCNC(=O)CCNC(=O)[C@H](O)C(C)(C)COP(=O)(O)OP(=O)(O)OC[C@H]1O[C@@H](n2cnc3c(N)ncnc32)[C@H](O)[C@@H]1OP(=O)(O)O` [butyryl-CoA], the “DTNB thioesterase assay, 412 nm” value (BVU_0767) is reported as “different substrate specificity for hydrolysis of short chain lengths of Acyl-CoAs and propionyl- and butyryl-CoA”.
For `CCC(=O)SCCNC(=O)CCNC(=O)[C@H](O)C(C)(C)COP(=O)(O)OP(=O)(O)OC[C@H]1O[C@@H](n2cnc3c(N)ncnc32)[C@H](O)[C@@H]1OP(=O)(O)O` [propionyl-CoA], the “DTNB thioesterase assay, 412 nm” value (BVU_0767) was “different substrate specificity for hydrolysis of short chain lengths of Acyl-CoAs and propionyl- and butyryl-CoA” and the “DTNB thioesterase assay, 412 nm” value (BT_3942) was “different substrate specificity for hydrolysis of short chain lengths of Acyl-CoAs and propionyl- and butyryl-CoA”.
